From US20200079765A1, “SUBSTITUTED HETEROARYL PYRROLONES AND SALTS THEREOF AND USE THEREOF AS HERBICIDAL ACTIVE SUBSTANCES” (Bayer CropScience Aktiengesellschaft, priority 2016, published 2020)

How the values were obtained:
Assay type in all cases: in vivo
Abutilon theophrasti [1] = assay: Post-emergence herbicidal action (Experimental Part 1, A); conditions: about 3 weeks after treatment, 100% = plants have died, 0% = like control plants
Procedure: (§1) Seeds of monocotyledonous and dicotyledonous weeds and crop plants were placed in sandy loam in plastic or wood-fiber pots, covered with soil and cultivated in a greenhouse under controlled growth conditions. 2 to 3 weeks after sowing, the test plants were treated at the one-leaf stage. The compounds of the invention, formulated in the form of wettable powders (WP) or as emulsion concentrates (EC), were then sprayed onto the green parts of the plants as aqueous suspension or emulsion with addition of 0.5% additive at a water application rate of 600 l/ha (converted). After the test plants had been kept in the greenhouse under optimum growth conditions for about 3 weeks, the activity of the preparations was rated visually in comparison to untreated controls. For example, 100% activity=the plants have died, 0% activity=like control plants. Tables A1 to A14 below show the effects of selected compounds of the general formula (I) according to Tables I.1 to I.116 on various harmful plants and an application rate corresponding to 1280 g/ha or 320 g/ha, which were obtained by the experimental procedure mentioned above.

Alopecurus myosuroides [2] = assay: as above; conditions: application rate 320 g/ha, about 3 weeks after treatment, 100% = plants have died, 0% = like control plants
Procedure: as §1

Amaranthus retroflexus [3] = assay: as above; conditions: about 3 weeks after treatment, 100% = plants have died, 0% = like control plants
Procedure: as §1

Echinochloa crus-galli [4] = assay: as above; conditions: application rate 320 g/ha, about 3 weeks after treatment, 100% = plants have died, 0% = like control plants
Procedure: as §1

Ipomoea purpurea [5] = assay: as above; conditions: rated visually after about 3 weeks
Procedure: as §1

Matricaria inodora [6] = assay: as above; conditions: rated visually after about 3 weeks
Procedure: as §1

Polygonum convolvulus [7] = assay: as above; conditions: rated visually after about 3 weeks
Procedure: as §1

Setaria viridis [8] = assay: as above; conditions: about 3 weeks after treatment, 100% = plants have died, 0% = like control plants
Procedure: as §1

Stellaria media [9] = assay: as above; conditions: rated visually after about 3 weeks
Procedure: as §1

Veronica persica = assay: as above; conditions: about 3 weeks after treatment, 100% = plants have died, 0% = like control plants
Procedure: as §1

Viola tricolor [10] = assay: as above; conditions: rated visually after about 3 weeks
Procedure: as §1

Abutilon theophrasti [11] = assay: Pre-emergence herbicidal action (Experimental Part 1, B); conditions: scored visually after about 3 weeks
Description: (§2) Seeds of monocotyledonous and dicotyledonous weed plants and crop plants were placed in plastic or organic planting pots and covered with soil. The compounds of the invention, formulated in the form of wettable powders (WP) or as emulsion concentrates (EC), were then applied onto the surface of the covering soil as aqueous suspension or emulsion with addition of 0.5% additive at a water application rate of 600 l/ha (converted). After the treatment, the pots were placed in a greenhouse and kept under good growth conditions for the test plants. After about 3 weeks, the effect of the preparations was scored visually in comparison with untreated controls as percentages. For example, 100% activity=the plants have died, 0% activity=like control plants. Tables B1 to B14 below show the effects of selected compounds of the general formula (I) according to Tables I.1 to I.116 on various harmful plants and an application rate corresponding to 1280 g/ha or 320 g/ha, which were obtained by the experimental procedure mentioned above.

Alopecurus myosuroides [12] = assay: as above; conditions: scored visually after about 3 weeks
Description: as §2

Amaranthus retroflexus [13] = assay: as above; conditions: scored visually after about 3 weeks
Description: as §2

Avena fatua = assay: as above; conditions: scored visually after about 3 weeks
Description: as §2

Echinochloa crus-galli [14] = assay: as above; conditions: application rate 320 g/ha, scored visually after about 3 weeks
Description: as §2

Ipomoea purpurea [15] = assay: as above; conditions: application rate 320 g/ha, scored visually after about 3 weeks
Description: as §2

Lolium rigidum = assay: as above; conditions: application rate 1280 g/ha, scored visually after about 3 weeks
Description: as §2

Matricaria inodora [16] = assay: as above; conditions: scored visually after about 3 weeks
Description: as §2

Polygonum convolvulus [17] = assay: as above; conditions: scored visually after about 3 weeks
Description: as §2

Setaria viridis [18] = assay: as above; conditions: scored visually after about 3 weeks
Description: as §2

Stellaria media [19] = assay: as above; conditions: scored visually after about 3 weeks
Description: as §2

Viola tricolor [20] = assay: as above; conditions: scored visually after about 3 weeks
Description: as §2

CCOC(=O)OC1C(C)=CC(=O)N1c1cc(C(C)(C)C)on1 (centres unmarked) [I.11-162, 5-Ethoxycarbonyloxy-4-methyl-1-(5-tert-butyl-1,2-isoxazol-3-yl)-1,5-dihydro-2H-pyrrol-2-one]
herbicidal activity on Abutilon theophrasti (visual rating vs untreated controls) (Abutilon theophrasti [1]; application rate 320 g/ha): 100%
herbicidal activity on Alopecurus myosuroides (visual rating vs untreated controls) (Alopecurus myosuroides [2]): 100%
herbicidal activity on Amaranthus retroflexus (visual rating vs untreated controls) (Amaranthus retroflexus [3]; application rate 320 g/ha): 100%
herbicidal activity on Echinochloa crus-galli (visual rating vs untreated controls) (Echinochloa crus-galli [4]): 90%
Ipomoea purpurea, herbicidal activity (Ipomoea purpurea [5]; application rate 320 g/ha): 90%
Matricaria inodora, herbicidal activity (Matricaria inodora [6]; application rate 320 g/ha): 100%
Polygonum convolvulus, herbicidal activity (Polygonum convolvulus [7]; application rate 320 g/ha): 100%
herbicidal activity on Setaria viridis (visual rating vs untreated controls) (Setaria viridis [8]; application rate 320 g/ha): 100%
Stellaria media, herbicidal activity (Stellaria media [9]; application rate 320 g/ha): 100%
herbicidal activity on Veronica persica (visual rating vs untreated controls) (Veronica persica; application rate 320 g/ha): 100%
Viola tricolor, herbicidal activity (Viola tricolor [10]; application rate 320 g/ha): 100%
Abutilon theophrasti, herbicidal activity (Abutilon theophrasti [11]; application rate 320 g/ha): 100%
Alopecurus myosuroides, herbicidal activity (Alopecurus myosuroides [12]; application rate 320 g/ha): 100%
Amaranthus retroflexus, herbicidal activity (Amaranthus retroflexus [13]; application rate 320 g/ha): 100%
Avena fatua, herbicidal activity (Avena fatua; application rate 320 g/ha): 90%
Echinochloa crus-galli, herbicidal activity (Echinochloa crus-galli [14]): 100%
Ipomoea purpurea, herbicidal activity (Ipomoea purpurea [15]): 90%
Lolium rigidum, herbicidal activity (Lolium rigidum): 90%
Matricaria inodora, herbicidal activity (Matricaria inodora [16]; application rate 320 g/ha): 100%
Polygonum convolvulus, herbicidal activity (Polygonum convolvulus [17]; application rate 320 g/ha): 100%
Setaria viridis, herbicidal activity (Setaria viridis [18]; application rate 320 g/ha): 100%
Stellaria media, herbicidal activity (Stellaria media [19]; application rate 320 g/ha): 100%
Viola tricolor, herbicidal activity (Viola tricolor [20]; application rate 320 g/ha): 100%

CCOC(=O)OC1C=C(C)C(=O)N1c1cc(C(F)(F)F)c(Cl)cn1 (centres unmarked) [I.12-451]
herbicidal activity on Abutilon theophrasti (visual rating vs untreated controls) (Abutilon theophrasti [1]; application rate 320 g/ha): 100%
herbicidal activity on Abutilon theophrasti (visual rating vs untreated controls) (Abutilon theophrasti [1]; application rate 1280 g/ha): 100%
herbicidal activity on Amaranthus retroflexus (visual rating vs untreated controls) (Amaranthus retroflexus [3]; application rate 320 g/ha): 100%
herbicidal activity on Amaranthus retroflexus (visual rating vs untreated controls) (Amaranthus retroflexus [3]; application rate 1280 g/ha): 100%
Ipomoea purpurea, herbicidal activity (Ipomoea purpurea [5]; application rate 320 g/ha): 100%
Ipomoea purpurea, herbicidal activity (Ipomoea purpurea [5]; application rate 1280 g/ha): 100%
Matricaria inodora, herbicidal activity (Matricaria inodora [6]; application rate 320 g/ha): 90%
Matricaria inodora, herbicidal activity (Matricaria inodora [6]; application rate 1280 g/ha): 100%
Polygonum convolvulus, herbicidal activity (Polygonum convolvulus [7]; application rate 320 g/ha): 100%
Polygonum convolvulus, herbicidal activity (Polygonum convolvulus [7]; application rate 1280 g/ha): 100%
herbicidal activity on Setaria viridis (visual rating vs untreated controls) (Setaria viridis [8]; application rate 320 g/ha): 100%
herbicidal activity on Setaria viridis (visual rating vs untreated controls) (Setaria viridis [8]; application rate 1280 g/ha): 100%
Stellaria media, herbicidal activity (Stellaria media [9]; application rate 320 g/ha): 100%
Stellaria media, herbicidal activity (Stellaria media [9]; application rate 1280 g/ha): 100%
herbicidal activity on Veronica persica (visual rating vs untreated controls) (Veronica persica; application rate 1280 g/ha): 100%
Viola tricolor, herbicidal activity (Viola tricolor [10]; application rate 320 g/ha): 100%
Viola tricolor, herbicidal activity (Viola tricolor [10]; application rate 1280 g/ha): 100%
Abutilon theophrasti, herbicidal activity (Abutilon theophrasti [11]; application rate 1280 g/ha): 100%
Alopecurus myosuroides, herbicidal activity (Alopecurus myosuroides [12]; application rate 1280 g/ha): 90%
Amaranthus retroflexus, herbicidal activity (Amaranthus retroflexus [13]; application rate 320 g/ha): 100%
Amaranthus retroflexus, herbicidal activity (Amaranthus retroflexus [13]; application rate 1280 g/ha): 100%
Avena fatua, herbicidal activity (Avena fatua; application rate 1280 g/ha): 90%
Matricaria inodora, herbicidal activity (Matricaria inodora [16]; application rate 1280 g/ha): 90%
Polygonum convolvulus, herbicidal activity (Polygonum convolvulus [17]; application rate 1280 g/ha): 100%
Setaria viridis, herbicidal activity (Setaria viridis [18]; application rate 320 g/ha): 90%
Setaria viridis, herbicidal activity (Setaria viridis [18]; application rate 1280 g/ha): 100%
Stellaria media, herbicidal activity (Stellaria media [19]; application rate 320 g/ha): 100%
Stellaria media, herbicidal activity (Stellaria media [19]; application rate 1280 g/ha): 100%
Viola tricolor, herbicidal activity (Viola tricolor [20]; application rate 320 g/ha): 100%
Viola tricolor, herbicidal activity (Viola tricolor [20]; application rate 1280 g/ha): 100%
